Assay results: US8318950B2, “N-acyl amino acid derivatives, a method for the preparation thereof, a pharmaceutical composition and use thereof as anti-allergic, anti-inflammatory and hypolipidemic agents” (Otkrytoe Aktsionernoe Obschestvo-Otechestvennye Lekarstva, priority 2005, dated 2012)

Legend:
[1] = test system: endogenous hypercholesterolemia in guinea pigs; test: Model of endogenous hypercholesterolemia in guinea pigs (fat loading); assay type: in vivo, guinea pig; settings: during 20 days, doses from 50 to 1,500 μg/kg
[2] = test system: antigen-induced bronchial spasm in sensitized guinea pigs; test: Systemic anaphylaxis in vivo: antigen-induced bronchial spasm in ovalbumin-sensitized conscious guinea pigs; design: species or system guinea pig
Source text: A bronchial spasm model in conscious guinea pigs actively sensitized by exposure to aerosol ovalbumin as an antigen was used [Kovaleva V. L. “Metodicheskiye ukazaniya po izucheniyu bronkholiticheskikh I protivovospalitel'nykh sredstv.//Rukovodstvo po experimental'nomy (doklinicheskomu) izucheniyu novykh pharmacologicheskikh veshchestv, Moscow. 2000. pp. 242-250].
Guinea pigs were sensitized by ovalbumin according to the method of Andersson [Anderson P. Antigen-induced bronchial anaphylaxis in actively sensitized guinea-pigs.//Allergy. 1980. Vol. 35. P. 63-71] and in 1-2 months following sensitization, bronchial spasm was induced by aerosol administration of albumin booster dose (3 mg/kg in 1 ml normal saline).
In test groups, guinea pigs were for three days administered with tested compounds at doses 10 μg/kg, 50 μg/kg, and 150 μg/kg, using a probe. In the other group of experiments, the tested compounds at dose 50 μg/kg (in 1 ml normal saline) were administered nasally (using a nebulizer) also once daily for three days. The control group was administered with normal saline. One hour post the last administration of substances, ovalbumin was administered by inhalation using a nebulizer, and intensity and duration (in seconds) of bronchial spasm reaction in animals was assessed.

[3] = test system: endogenous hypercholesterolemia in guinea pigs; test: Model of endogenous hypercholesterolemia in guinea pigs (fat loading); assay type: in vivo, guinea pig; design: Serum total cholesterol / Serum total triglyceride levels: unit not given here; settings: for Serum total cholesterol / Serum total triglyceride levels: fat loading + compound 500 μg/kg orally
Protocol: The study was carried out on male guinea pigs (Aguti line) weighing 304±25 g. The experiment lasted 31 days. The control group included 6 guinea pigs (intact animals). The compounds studied were administered from day 1 of the experiment (from day 1 of administering fat loading).
The animals of experimental groups received orally for 31 days a compound studied and fat loading. The compound studied at doses indicated below was administered in the form of an aqueous solution (0.5 ml per an animal); fat loading (a mixture of porcine fat and preliminary heated corn oil at 4:1 ratio by volume, at the rate of 5 ml/kg weight 0.5 h post administering the substance studied.
1) “control”—intact animals;
2) “fat”—animals that received fat loading only
3) “compound IV”—animals that received fat loading+compound IV at dose 500 μg/kg body weight;
4) “compound V”—animals that received fat loading+compound V at dose 500 μg/kg body weight.
Statistical processing was carried out using a mono-factorial analysis of variance.

[4] = by inhalation, 50 μg/kg, once daily for three days
[5] = intragastric, 10 μg/kg, three days
[6] = intragastric, 150 μg/kg, three days
[7] = day 31, blood serum, 500 μg/kg orally (Table 24)
[8] = day 31, blood serum, 500 μg/kg orally (Table 25)

With O=C(O)CCCC(=O)N[C@@H](Cc1c[nH]cn1)C(=O)O [Compound IV, N^α-glutaryl-L-histidine] the “lowering total cholesterol level at different doses (FIG. 1)” value [1] was “practically similarly effective in lowering total cholesterol level”, the “Duration of acute phase” value [2, 4] was 0 s and the “Duration of sub-acute phase” value [2, 4] was 400 ± 25 s. For the same compound, the “Duration of acute phase” value [2, 5] was 68.0 ± 54.7 s, the Total reaction time [2, 5] was 428.0 ± 75.0 s and the “Duration of acute phase” value [2, 6] was 72.0 ± 42.1 s. The Total reaction time [2, 6] was 337.0 ± 78.5 s, the Serum total cholesterol ([3]; Day 28) was 55.5 ± 6.3 and the “Serum total triglyceride levels” value ([3]; Day 28) was 66.8 ± 6.7. The Serum total cholesterol ([3]; Day 31) was 49.2 ± 3.9, the “Serum total triglyceride levels” value ([3]; Day 31) was 69.0 ± 13.4 and the “lowered LDL cholesterol” value ([3]; by day 31 of the experiment) was 37.7%. The “lowered total cholesterol level” value ([3]; by day 31 of the experiment) was 33.9%, the Cholesterol, LDL [3, 7] was 42.1 ± 3.5 mg/100 ml and the Cholesterol, Total [3, 7] was 49.2 ± 3.9 mg/100 ml. For the same compound, the Cholesterol, VLDL [3, 7] was 3 ± 0.71 mg/100 ml, the Triglycerides, LDL [3, 8] was 29.6 ± 2.4 mg/100 ml and the Triglycerides, Total [3, 8] was 69 ± 13.4 mg/100 ml. It also gave a Triglycerides, VLDL [3, 8] of 33.2 ± 12.3 mg/100 ml.
